Tested on: Saccharomyces cerevisiae ABC16-Green Monster
Conditions: 18 h; 30 °C; YPD
Outline: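 IC50 values come from GraphPad Prism fits of log(inhibitor) versus response, with variable slope, applied to background-subtracted optical density. The assay used 96-well plates holding 200 µl per well of log-phase drug-sensitive S. cerevisiae ABC16-Green Monster in YPD. Compound was added as eight 1:2 dilutions spanning final concentrations of 0.1–150 μM, in biological duplicate, and plates were kept at 30 °C for 18 h, with OD600 measured at 0 h and 18 h.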

CCCCCN(C)CCC(O)(P(=O)([O-])O)P(=O)(O)O.[Na+] [Ibandronate]
IC50 growth inhibition: > 75 µM

Cc1ccc2nc3ccccc3c(N3CCN(C(=O)c4ccccc4)CC3)c2c1
IC50 growth inhibition: 6.15 µM

C=CC1(C)CC(=O)C2(O)C(C)(O1)C(OC(C)=O)C(O)C1C(C)(C)CCC(O)C12C (centres undefined) [Forskolin]
IC50 growth inhibition: > 75 µM

COc1cc(C=Cc2ccc(O)cc2)cc(OC)c1 [Pterostilbene]
IC50 growth inhibition: 29.4 µM

Reference: the supplement of paper PMC8837787
